This note sets out measurements from PubChem BioAssay (NCI).

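All cell lines were grown in 96-well plates and treated with compound for 48 hours. Abbreviation: GI50, concentration required for 50% inhibition of growth. TGI: concentration producing complete growth inhibition.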 Where only a bound is given, the exact number is not on record here.

In the first experiment the test system is A549 NSCLC. The experiment in a line: growth of human tumour cells (NCI), 48 h.
On to `Cc1cc2c(cc1Cl)SC(N(N(C)C)S(=O)(=O)c1ccc(Cl)cc1)=NS2(=O)=O`, for which the GI50 is 20.3 µM and the TGI is above 100 µM.
As to `Nc1ncnc2n[nH]c(Nc3ccc(F)cc3)c12`, the GI50 is 39.2 µM and the TGI was above 100 µM.
In turn, `OC(c1nc2ccccc2[nH]1)C(O)C(O)C(O)c1nc2ccccc2[nH]1` (centres undefined) had a TGI above 100 µM.
Still for that read-out and setting: under `Cc1cc(O)c(/C=N/C(=S)NCc2ccccc2)c(=O)o1` stands above 100 µM.
`Cc1cc(I)cc(CN(C)CCCN2CCCCC2)c1O`: the GI50 was 16.8 µM and the TGI stood at 35.7 µM.
Taken in the same sequence, the figures for `COc1cccc(-c2nc(-c3ccc(NC(=O)C(C)C)cc3)[nH]c2-c2ccnc(Br)c2)c1` were 3.45 µM and above 100 µM.

The subject of a further experiment is HOP-92 NSCLC. Briefly: growth of human tumour cells (NCI), 48 h.
In the case of `Cc1cc2c(cc1Cl)SC(N(N(C)C)S(=O)(=O)c1ccc(Cl)cc1)=NS2(=O)=O`, the GI50 was 14.8 µM and the TGI was determined as 35.3 µM.
Regarding `Nc1ncnc2n[nH]c(Nc3ccc(F)cc3)c12`, the GI50 is 12 µM and the TGI is 87.4 µM.
As for `OC(c1nc2ccccc2[nH]1)C(O)C(O)C(O)c1nc2ccccc2[nH]1` (centres undefined), the TGI is above 100 µM.
For the molecule `Cc1cc(O)c(/C=N/C(=S)NCc2ccccc2)c(=O)o1`, the TGI was above 100 µM.
For `Cc1cc(I)cc(CN(C)CCCN2CCCCC2)c1O`, the GI50 is 11.6 µM and the TGI was found to be 38.6 µM.
Take `COc1cccc(-c2nc(-c3ccc(NC(=O)C(C)C)cc3)[nH]c2-c2ccnc(Br)c2)c1`: the GI50 is 3.58 µM and the TGI was found to be 48.4 µM.

Another experiment has as its system HT29 colon. The experiment in a line: growth of human tumour cells (NCI), 48 h.
With `Cc1cc2c(cc1Cl)SC(N(N(C)C)S(=O)(=O)c1ccc(Cl)cc1)=NS2(=O)=O`, the GI50 is 27.1 µM and the TGI turned out to be 99.2 µM.
The corresponding values for `Nc1ncnc2n[nH]c(Nc3ccc(F)cc3)c12` are 25.3 µM and above 100 µM.
`OC(c1nc2ccccc2[nH]1)C(O)C(O)C(O)c1nc2ccccc2[nH]1` (centres undefined) gave a TGI above 100 µM.
On to `Cc1cc(O)c(/C=N/C(=S)NCc2ccccc2)c(=O)o1`, for which the TGI was above 100 µM.
In the case of `Cc1cc(I)cc(CN(C)CCCN2CCCCC2)c1O`, the GI50 was 4.46 µM and the TGI was 16.1 µM.
The corresponding values for `COc1cccc(-c2nc(-c3ccc(NC(=O)C(C)C)cc3)[nH]c2-c2ccnc(Br)c2)c1` are 3.07 µM and above 100 µM.

The subject of a further experiment is LOX IMVI melanoma. The experiment in a line: growth of human tumour cells (NCI), 48 h.
As to `Cc1cc2c(cc1Cl)SC(N(N(C)C)S(=O)(=O)c1ccc(Cl)cc1)=NS2(=O)=O`, the GI50 is 33.4 µM and the TGI is above 100 µM.
The corresponding values for `Nc1ncnc2n[nH]c(Nc3ccc(F)cc3)c12` are 10.1 µM and 34 µM.
The molecule `OC(c1nc2ccccc2[nH]1)C(O)C(O)C(O)c1nc2ccccc2[nH]1` (centres undefined) had a TGI above 100 µM.
The same measure, in the same setting: in the case of `Cc1cc(O)c(/C=N/C(=S)NCc2ccccc2)c(=O)o1` it was above 100 µM.
Take `Cc1cc(I)cc(CN(C)CCCN2CCCCC2)c1O`: the GI50 is 13.5 µM and the TGI was found to be 28.5 µM.
Taken in the same sequence, the figures for `COc1cccc(-c2nc(-c3ccc(NC(=O)C(C)C)cc3)[nH]c2-c2ccnc(Br)c2)c1` were 1.61 µM and 3.38 µM.

For the next experiment, the system named is NCI/ADR-RES ovarian. The experiment in a line: growth of human tumour cells (NCI), 48 h.
As to `Cc1cc2c(cc1Cl)SC(N(N(C)C)S(=O)(=O)c1ccc(Cl)cc1)=NS2(=O)=O`, the GI50 is 28 µM and the TGI is above 100 µM.
As to `Nc1ncnc2n[nH]c(Nc3ccc(F)cc3)c12`, the GI50 was 65.3 µM and the TGI was above 100 µM.
Consider `OC(c1nc2ccccc2[nH]1)C(O)C(O)C(O)c1nc2ccccc2[nH]1` (centres undefined), for which the TGI was above 100 µM.
Still for that read-out and setting: in the case of `Cc1cc(O)c(/C=N/C(=S)NCc2ccccc2)c(=O)o1` it was above 100 µM.
For `Cc1cc(I)cc(CN(C)CCCN2CCCCC2)c1O`, the GI50 was 21.9 µM and the TGI was 59 µM.
As for `COc1cccc(-c2nc(-c3ccc(NC(=O)C(C)C)cc3)[nH]c2-c2ccnc(Br)c2)c1`, the GI50 was 3.03 µM and the TGI was above 100 µM.

The subject of a further experiment is OVCAR-4 ovarian. The experiment in a line: growth of human tumour cells (NCI), 48 h.
Regarding `Cc1cc2c(cc1Cl)SC(N(N(C)C)S(=O)(=O)c1ccc(Cl)cc1)=NS2(=O)=O`, the GI50 was 23.4 µM and the TGI was found to be 96.4 µM.
Taken in the same sequence, the figures for `Nc1ncnc2n[nH]c(Nc3ccc(F)cc3)c12` were 19 µM and 75.2 µM.
Regarding `OC(c1nc2ccccc2[nH]1)C(O)C(O)C(O)c1nc2ccccc2[nH]1` (centres undefined), the TGI was above 100 µM.
On the same count and under the same terms, in the case of `Cc1cc(O)c(/C=N/C(=S)NCc2ccccc2)c(=O)o1` it was above 100 µM.
Take `Cc1cc(I)cc(CN(C)CCCN2CCCCC2)c1O`: the GI50 is 32.7 µM and the TGI was above 100 µM.
On to `COc1cccc(-c2nc(-c3ccc(NC(=O)C(C)C)cc3)[nH]c2-c2ccnc(Br)c2)c1`, for which the GI50 was 3.54 µM and the TGI was above 100 µM.

The next experiment concerns SNB-75 CNS. Briefly: growth of human tumour cells (NCI), 48 h.
As for `Cc1cc2c(cc1Cl)SC(N(N(C)C)S(=O)(=O)c1ccc(Cl)cc1)=NS2(=O)=O`, the GI50 was 36 µM and the TGI was 97.5 µM.
For the molecule `Nc1ncnc2n[nH]c(Nc3ccc(F)cc3)c12`, the GI50 is 31.7 µM and the TGI was above 100 µM.
The molecule `OC(c1nc2ccccc2[nH]1)C(O)C(O)C(O)c1nc2ccccc2[nH]1` (centres undefined) registered a TGI above 100 µM.
With `Cc1cc(O)c(/C=N/C(=S)NCc2ccccc2)c(=O)o1`, the TGI is above 100 µM.
Turning to `Cc1cc(I)cc(CN(C)CCCN2CCCCC2)c1O`, the GI50 is 16.6 µM and the TGI amounted to 34.8 µM.
`COc1cccc(-c2nc(-c3ccc(NC(=O)C(C)C)cc3)[nH]c2-c2ccnc(Br)c2)c1`: the GI50 was 0.488 µM and the TGI is above 100 µM.

Another experiment concerns SR leukemia. The experiment in a line: growth of human tumour cells (NCI), 48 h.
In the case of `Cc1cc2c(cc1Cl)SC(N(N(C)C)S(=O)(=O)c1ccc(Cl)cc1)=NS2(=O)=O`, the GI50 was 23.3 µM and the TGI came out at 91.7 µM.
The corresponding values for `Nc1ncnc2n[nH]c(Nc3ccc(F)cc3)c12` are 13.3 µM and 94.6 µM.
Molecule `OC(c1nc2ccccc2[nH]1)C(O)C(O)C(O)c1nc2ccccc2[nH]1` (centres undefined) yielded a TGI above 100 µM.
Molecule `Cc1cc(O)c(/C=N/C(=S)NCc2ccccc2)c(=O)o1` registered a TGI above 100 µM.
Consider `Cc1cc(I)cc(CN(C)CCCN2CCCCC2)c1O`, for which the TGI came out at 3.57 µM.
Take `COc1cccc(-c2nc(-c3ccc(NC(=O)C(C)C)cc3)[nH]c2-c2ccnc(Br)c2)c1`: the GI50 is 2.41 µM and the TGI is above 100 µM.

For the next experiment, the system named is U251 CNS. Briefly: growth of human tumour cells (NCI), 48 h.
Take `Cc1cc2c(cc1Cl)SC(N(N(C)C)S(=O)(=O)c1ccc(Cl)cc1)=NS2(=O)=O`: the GI50 was 26.3 µM and the TGI was above 100 µM.
The corresponding values for `Nc1ncnc2n[nH]c(Nc3ccc(F)cc3)c12` are 28.6 µM and above 100 µM.
The molecule `OC(c1nc2ccccc2[nH]1)C(O)C(O)C(O)c1nc2ccccc2[nH]1` (centres undefined) displayed a TGI above 100 µM.
The molecule `Cc1cc(O)c(/C=N/C(=S)NCc2ccccc2)c(=O)o1` had a TGI above 100 µM.
Turning to `Cc1cc(I)cc(CN(C)CCCN2CCCCC2)c1O`, the GI50 was 15.7 µM and the TGI amounted to 33.4 µM.
Taken in the same sequence, the figures for `COc1cccc(-c2nc(-c3ccc(NC(=O)C(C)C)cc3)[nH]c2-c2ccnc(Br)c2)c1` were 2.08 µM and above 100 µM.

Another experiment deals with UO-31 renal. The experiment in a line: growth of human tumour cells (NCI), 48 h.
As to `Cc1cc2c(cc1Cl)SC(N(N(C)C)S(=O)(=O)c1ccc(Cl)cc1)=NS2(=O)=O`, the GI50 is 28.3 µM and the TGI was above 100 µM.
As for `Nc1ncnc2n[nH]c(Nc3ccc(F)cc3)c12`, the GI50 was 5.93 µM and the TGI is above 100 µM.
In turn, `OC(c1nc2ccccc2[nH]1)C(O)C(O)C(O)c1nc2ccccc2[nH]1` (centres undefined) displayed a TGI above 100 µM.
As to `Cc1cc(O)c(/C=N/C(=S)NCc2ccccc2)c(=O)o1`, the TGI was above 100 µM.
On to `Cc1cc(I)cc(CN(C)CCCN2CCCCC2)c1O`, for which the GI50 is 11.8 µM and the TGI stood at 31.1 µM.
As for `COc1cccc(-c2nc(-c3ccc(NC(=O)C(C)C)cc3)[nH]c2-c2ccnc(Br)c2)c1`, the GI50 was 3.2 µM and the TGI was above 100 µM.
